The results in this text go back to ChEMBL document CHEMBL5465560, “Selectivity Literature for EUbOPEN Chemogenomic Library” (2024).

In assay [1] the target is Platelet-derived growth factor receptor alpha (Homo sapiens, UniProt P16234). Nature of the assay: Selectivity interaction (Millipore kinase profiler) EUB0000124b PDGFRA. The conditions noted are these: at 10 µM.
Assay [2] concerns the target Protein kinase C delta type (Homo sapiens) (UniProt Q05655). Nature of the assay: Selectivity interaction (KinomeScan (DiscoverX)) EUB0001049a PRKCD. Particulars: at 1 µM.
For assay [3], the target named is Tyrosine-protein kinase BTK (Homo sapiens, UniProt Q06187). Nature of the assay: Selectivity interaction (KinomeScan (DiscoverX)) EUB0000655a BTK. The conditions noted are these: at 10 µM.
In assay [4] the target is Mitogen-activated protein kinase kinase kinase kinase 1 (Homo sapiens) (UniProt Q92918). Description: Selectivity interaction (KinomeScan (DiscoverX)) EUB0000695a MAP4K1. Particulars: at 100 nM.
The next assay addresses Histamine H3 receptor (Homo sapiens, UniProt Q9Y5N1). Description: Selectivity interaction (Eurofins CEREP Diversity Profile (receptors and ion channels)) EUB0000279b HRH3. The conditions noted are these: at 10 µM.
Assay [5] addresses T1, Serine/threonine-protein kinase ICK (Homo sapiens) (UniProt Q9UPZ9).
T1 sequence (whole entry): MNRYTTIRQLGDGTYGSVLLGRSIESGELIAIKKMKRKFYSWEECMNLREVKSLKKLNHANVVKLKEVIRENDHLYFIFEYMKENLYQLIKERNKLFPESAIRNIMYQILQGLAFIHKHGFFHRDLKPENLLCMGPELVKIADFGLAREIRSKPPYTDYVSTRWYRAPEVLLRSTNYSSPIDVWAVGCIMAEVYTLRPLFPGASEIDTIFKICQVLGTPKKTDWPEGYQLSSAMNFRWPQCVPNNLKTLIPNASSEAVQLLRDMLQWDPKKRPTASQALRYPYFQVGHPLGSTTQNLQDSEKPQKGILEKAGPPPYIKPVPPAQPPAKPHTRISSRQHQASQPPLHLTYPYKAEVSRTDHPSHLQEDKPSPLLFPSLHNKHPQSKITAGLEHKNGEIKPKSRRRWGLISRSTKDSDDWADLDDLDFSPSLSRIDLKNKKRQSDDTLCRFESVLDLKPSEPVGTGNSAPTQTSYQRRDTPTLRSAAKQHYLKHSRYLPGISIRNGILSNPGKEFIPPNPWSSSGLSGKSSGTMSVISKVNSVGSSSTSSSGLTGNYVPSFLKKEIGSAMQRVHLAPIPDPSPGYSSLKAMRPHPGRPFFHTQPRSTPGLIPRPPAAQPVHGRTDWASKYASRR
Nature of the assay: Selectivity interaction (KinomeScan (DiscoverX)) EUB0000666a ICK. The conditions noted are these: at 10 µM.

Assay [6] concerns the target T2, Ephrin type-B receptor 3 (Homo sapiens) (UniProt P54753).
T2 sequence (whole entry): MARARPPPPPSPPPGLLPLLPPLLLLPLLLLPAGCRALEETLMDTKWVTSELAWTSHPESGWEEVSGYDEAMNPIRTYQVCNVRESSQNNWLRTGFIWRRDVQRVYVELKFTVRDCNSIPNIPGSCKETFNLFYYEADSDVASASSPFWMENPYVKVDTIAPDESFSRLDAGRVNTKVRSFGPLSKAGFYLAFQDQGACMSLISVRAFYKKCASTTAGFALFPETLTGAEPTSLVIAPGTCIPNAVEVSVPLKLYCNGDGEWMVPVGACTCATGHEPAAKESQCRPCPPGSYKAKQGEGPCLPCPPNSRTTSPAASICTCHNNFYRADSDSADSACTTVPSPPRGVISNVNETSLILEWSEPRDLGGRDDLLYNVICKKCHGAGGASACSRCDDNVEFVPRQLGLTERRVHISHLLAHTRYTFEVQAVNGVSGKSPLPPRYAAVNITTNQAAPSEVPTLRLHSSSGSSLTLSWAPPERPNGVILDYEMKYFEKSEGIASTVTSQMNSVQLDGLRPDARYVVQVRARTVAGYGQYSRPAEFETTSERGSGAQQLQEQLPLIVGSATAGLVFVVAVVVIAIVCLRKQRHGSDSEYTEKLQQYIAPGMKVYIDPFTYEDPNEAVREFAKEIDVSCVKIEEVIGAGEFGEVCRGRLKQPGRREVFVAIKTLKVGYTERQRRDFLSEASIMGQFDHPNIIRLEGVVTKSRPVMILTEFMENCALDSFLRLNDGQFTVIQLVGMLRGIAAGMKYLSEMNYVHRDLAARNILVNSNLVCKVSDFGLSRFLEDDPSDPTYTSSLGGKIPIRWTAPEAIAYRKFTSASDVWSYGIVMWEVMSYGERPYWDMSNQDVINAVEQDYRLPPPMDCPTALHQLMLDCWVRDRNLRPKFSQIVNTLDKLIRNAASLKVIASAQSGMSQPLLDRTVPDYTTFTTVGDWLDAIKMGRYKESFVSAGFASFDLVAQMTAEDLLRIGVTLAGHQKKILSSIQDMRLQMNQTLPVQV
Nature of the assay: Selectivity interaction (Kinase panel (Z-LYTE Assay)) EUB0001632a EPHB3. Particulars: at 10 µM.

Assay [7] addresses Poly [ADP-ribose] polymerase 1 (Homo sapiens, UniProt P09874). Nature of the assay: Selectivity interaction (Enzymatic assay (Reaction Biology)) EUB0001632a PARP1.
Assay [8] concerns the target Mitogen-activated protein kinase 6 (Homo sapiens) (UniProt Q16659). Nature of the assay: Selectivity interaction (KinomeScan (DiscoverX)) EUB0000607a MAPK6. Particulars: at 10 µM.
The target in assay [9] is Tyrosine-protein kinase ABL1 (Homo sapiens, UniProt P00519). Nature of the assay: Selectivity interaction (Kinase panel (Invitrogen)) EUB0000639a ABL1. Particulars: at 200 nM.
Assay [10] addresses Glycogen synthase kinase-3 beta (Homo sapiens, UniProt P49841). Nature of the assay: Selectivity interaction (KinomeScan (DiscoverX)) EUB0000229b GSK3B. The conditions noted are these: at 10 µM.
For assay [11], the target named is Serine/threonine-protein kinase 32B (Homo sapiens) (UniProt Q9NY57). Nature of the assay: Selectivity interaction (KinomeScan (DiscoverX)) EUB0000595a STK32B. Particulars: at 10 µM.
The target of assay [12] is T3, STE20-related kinase adapter protein alpha (Homo sapiens) (UniProt Q7RTN6).
T3 sequence (whole entry): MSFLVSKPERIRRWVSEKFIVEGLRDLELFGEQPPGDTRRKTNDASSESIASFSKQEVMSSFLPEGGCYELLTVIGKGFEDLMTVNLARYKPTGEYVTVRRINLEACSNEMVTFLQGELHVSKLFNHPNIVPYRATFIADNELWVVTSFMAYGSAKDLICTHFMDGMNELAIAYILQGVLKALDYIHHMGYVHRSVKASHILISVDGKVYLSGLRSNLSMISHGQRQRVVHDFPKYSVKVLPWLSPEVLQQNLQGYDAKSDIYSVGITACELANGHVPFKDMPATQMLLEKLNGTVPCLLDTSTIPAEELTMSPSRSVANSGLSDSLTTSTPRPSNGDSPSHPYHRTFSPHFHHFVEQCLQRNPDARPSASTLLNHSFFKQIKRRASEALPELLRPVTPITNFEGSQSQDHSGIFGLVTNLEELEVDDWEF
Description: Selectivity interaction (Kinase panel (KiNativ target engagement assay in Jurkat cells)) EUB0001635a STRADA. The assay is classed as cell-based. The conditions noted are these: Selectivity number of off-targets 0.0, Selectivity number of targets 233.0, Source Knowledge https://www.sciencedirect.com/science/article/pii/S2451945619300674?via%3Dihub, at 1 µM.

Structures are written as SMILES. Bounds are passed on as bounds.

Platelet-derived growth factor receptor alpha, sequence (P16234 whole entry): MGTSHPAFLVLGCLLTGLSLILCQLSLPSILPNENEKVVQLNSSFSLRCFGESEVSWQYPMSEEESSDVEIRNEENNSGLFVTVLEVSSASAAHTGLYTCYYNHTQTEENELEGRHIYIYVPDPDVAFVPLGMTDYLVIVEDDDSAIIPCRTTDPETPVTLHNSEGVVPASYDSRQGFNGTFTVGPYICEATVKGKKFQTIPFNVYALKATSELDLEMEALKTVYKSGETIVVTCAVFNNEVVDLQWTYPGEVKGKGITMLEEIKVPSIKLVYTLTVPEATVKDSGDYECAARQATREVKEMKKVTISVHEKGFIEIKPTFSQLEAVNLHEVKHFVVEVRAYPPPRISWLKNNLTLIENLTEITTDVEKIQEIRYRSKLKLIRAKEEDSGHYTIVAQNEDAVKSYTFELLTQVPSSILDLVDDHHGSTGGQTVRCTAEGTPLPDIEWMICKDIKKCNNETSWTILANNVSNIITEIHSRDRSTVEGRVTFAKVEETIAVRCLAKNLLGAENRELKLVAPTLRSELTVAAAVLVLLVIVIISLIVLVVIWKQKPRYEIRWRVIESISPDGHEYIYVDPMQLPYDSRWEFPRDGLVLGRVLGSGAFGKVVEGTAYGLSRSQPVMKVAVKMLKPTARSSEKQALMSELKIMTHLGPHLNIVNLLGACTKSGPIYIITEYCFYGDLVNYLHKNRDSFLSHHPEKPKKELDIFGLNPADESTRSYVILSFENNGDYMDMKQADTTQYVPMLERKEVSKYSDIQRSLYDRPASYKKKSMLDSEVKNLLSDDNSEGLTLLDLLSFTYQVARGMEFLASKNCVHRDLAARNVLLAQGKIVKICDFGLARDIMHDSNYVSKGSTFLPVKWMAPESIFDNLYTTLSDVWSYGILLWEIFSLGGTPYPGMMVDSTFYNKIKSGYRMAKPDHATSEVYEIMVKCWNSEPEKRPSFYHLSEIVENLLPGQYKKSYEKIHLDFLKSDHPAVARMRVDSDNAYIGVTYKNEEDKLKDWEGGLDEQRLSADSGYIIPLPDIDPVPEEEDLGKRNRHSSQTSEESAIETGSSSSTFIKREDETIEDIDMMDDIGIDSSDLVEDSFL
Tyrosine-protein kinase BTK, sequence (Q06187 whole entry): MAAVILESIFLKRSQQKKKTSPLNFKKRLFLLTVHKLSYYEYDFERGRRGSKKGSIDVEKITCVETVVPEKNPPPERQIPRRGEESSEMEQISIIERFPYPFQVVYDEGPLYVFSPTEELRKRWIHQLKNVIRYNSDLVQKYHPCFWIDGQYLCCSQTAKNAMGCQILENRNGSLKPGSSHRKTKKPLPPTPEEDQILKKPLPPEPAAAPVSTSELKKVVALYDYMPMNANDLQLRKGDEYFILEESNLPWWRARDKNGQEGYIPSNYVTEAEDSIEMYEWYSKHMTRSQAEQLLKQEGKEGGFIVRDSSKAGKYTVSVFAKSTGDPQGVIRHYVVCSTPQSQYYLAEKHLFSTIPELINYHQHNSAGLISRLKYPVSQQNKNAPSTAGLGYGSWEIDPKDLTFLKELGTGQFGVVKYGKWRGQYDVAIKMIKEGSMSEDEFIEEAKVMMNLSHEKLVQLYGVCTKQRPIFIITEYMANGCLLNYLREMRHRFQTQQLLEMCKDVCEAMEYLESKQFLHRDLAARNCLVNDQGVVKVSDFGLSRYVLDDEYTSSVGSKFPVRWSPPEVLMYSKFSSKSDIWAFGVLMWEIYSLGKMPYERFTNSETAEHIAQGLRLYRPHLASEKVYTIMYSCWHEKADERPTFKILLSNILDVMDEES
Mitogen-activated protein kinase 6 (Homo sapiens), sequence (Q16659 whole entry): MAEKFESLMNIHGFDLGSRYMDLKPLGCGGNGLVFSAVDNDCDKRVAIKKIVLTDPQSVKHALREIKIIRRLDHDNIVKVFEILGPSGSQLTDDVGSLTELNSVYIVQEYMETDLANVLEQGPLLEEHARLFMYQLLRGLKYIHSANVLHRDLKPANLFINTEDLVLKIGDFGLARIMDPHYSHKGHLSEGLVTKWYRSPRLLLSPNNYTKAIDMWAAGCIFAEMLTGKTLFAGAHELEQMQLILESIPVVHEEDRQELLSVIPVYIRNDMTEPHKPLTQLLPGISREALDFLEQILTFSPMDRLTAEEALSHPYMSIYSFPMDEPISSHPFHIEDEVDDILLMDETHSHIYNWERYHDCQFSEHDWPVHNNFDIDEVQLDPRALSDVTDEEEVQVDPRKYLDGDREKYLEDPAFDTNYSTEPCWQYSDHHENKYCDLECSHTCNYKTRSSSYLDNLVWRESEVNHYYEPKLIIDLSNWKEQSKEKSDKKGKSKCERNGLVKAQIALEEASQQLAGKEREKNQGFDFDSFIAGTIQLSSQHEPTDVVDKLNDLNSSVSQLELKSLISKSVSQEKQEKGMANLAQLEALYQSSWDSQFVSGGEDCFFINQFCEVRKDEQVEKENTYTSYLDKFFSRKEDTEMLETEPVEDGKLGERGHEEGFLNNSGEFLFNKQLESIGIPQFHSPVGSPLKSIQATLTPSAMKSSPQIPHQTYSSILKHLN
Glycogen synthase kinase-3 beta, sequence (P49841 whole entry, looked up): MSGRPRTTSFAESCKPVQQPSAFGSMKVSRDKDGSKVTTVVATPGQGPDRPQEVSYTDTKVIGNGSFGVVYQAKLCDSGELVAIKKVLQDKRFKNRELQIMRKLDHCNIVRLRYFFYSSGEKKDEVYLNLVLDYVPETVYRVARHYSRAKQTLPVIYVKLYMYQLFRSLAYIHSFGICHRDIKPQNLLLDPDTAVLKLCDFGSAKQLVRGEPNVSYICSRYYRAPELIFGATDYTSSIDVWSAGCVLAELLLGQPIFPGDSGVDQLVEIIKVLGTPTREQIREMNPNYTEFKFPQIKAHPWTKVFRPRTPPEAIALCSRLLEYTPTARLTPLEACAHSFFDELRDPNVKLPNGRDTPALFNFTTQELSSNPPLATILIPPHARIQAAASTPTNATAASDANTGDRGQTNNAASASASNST
Tyrosine-protein kinase ABL1, sequence (P00519 whole entry): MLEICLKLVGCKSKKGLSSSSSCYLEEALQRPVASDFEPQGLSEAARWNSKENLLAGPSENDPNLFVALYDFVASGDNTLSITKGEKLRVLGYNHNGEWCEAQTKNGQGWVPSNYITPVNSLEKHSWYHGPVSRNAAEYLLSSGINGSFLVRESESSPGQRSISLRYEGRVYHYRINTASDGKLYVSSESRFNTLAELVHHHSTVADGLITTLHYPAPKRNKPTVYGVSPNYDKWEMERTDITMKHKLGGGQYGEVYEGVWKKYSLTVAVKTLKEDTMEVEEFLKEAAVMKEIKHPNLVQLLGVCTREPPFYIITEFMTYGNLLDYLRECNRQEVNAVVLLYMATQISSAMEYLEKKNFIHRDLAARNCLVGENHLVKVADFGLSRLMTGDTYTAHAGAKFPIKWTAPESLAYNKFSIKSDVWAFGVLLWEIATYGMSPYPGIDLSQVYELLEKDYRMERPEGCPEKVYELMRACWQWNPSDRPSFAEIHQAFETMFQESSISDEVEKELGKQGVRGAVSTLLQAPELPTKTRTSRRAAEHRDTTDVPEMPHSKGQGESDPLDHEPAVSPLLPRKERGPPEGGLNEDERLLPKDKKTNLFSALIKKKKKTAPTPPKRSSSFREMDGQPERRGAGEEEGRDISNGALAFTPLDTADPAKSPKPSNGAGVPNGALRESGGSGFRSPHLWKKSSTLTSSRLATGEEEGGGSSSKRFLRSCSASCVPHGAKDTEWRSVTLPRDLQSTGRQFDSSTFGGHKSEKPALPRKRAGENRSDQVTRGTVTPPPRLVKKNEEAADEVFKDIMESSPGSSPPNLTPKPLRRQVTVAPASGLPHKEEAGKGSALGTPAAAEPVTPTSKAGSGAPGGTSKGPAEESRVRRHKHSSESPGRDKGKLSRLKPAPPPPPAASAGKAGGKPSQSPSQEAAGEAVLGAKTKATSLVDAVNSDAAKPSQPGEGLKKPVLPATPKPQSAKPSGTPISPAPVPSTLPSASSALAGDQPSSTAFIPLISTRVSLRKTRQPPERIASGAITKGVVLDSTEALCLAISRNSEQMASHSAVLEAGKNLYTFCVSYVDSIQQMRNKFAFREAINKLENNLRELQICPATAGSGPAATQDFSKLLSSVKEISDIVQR
Poly [ADP-ribose] polymerase 1, sequence (P09874 whole entry): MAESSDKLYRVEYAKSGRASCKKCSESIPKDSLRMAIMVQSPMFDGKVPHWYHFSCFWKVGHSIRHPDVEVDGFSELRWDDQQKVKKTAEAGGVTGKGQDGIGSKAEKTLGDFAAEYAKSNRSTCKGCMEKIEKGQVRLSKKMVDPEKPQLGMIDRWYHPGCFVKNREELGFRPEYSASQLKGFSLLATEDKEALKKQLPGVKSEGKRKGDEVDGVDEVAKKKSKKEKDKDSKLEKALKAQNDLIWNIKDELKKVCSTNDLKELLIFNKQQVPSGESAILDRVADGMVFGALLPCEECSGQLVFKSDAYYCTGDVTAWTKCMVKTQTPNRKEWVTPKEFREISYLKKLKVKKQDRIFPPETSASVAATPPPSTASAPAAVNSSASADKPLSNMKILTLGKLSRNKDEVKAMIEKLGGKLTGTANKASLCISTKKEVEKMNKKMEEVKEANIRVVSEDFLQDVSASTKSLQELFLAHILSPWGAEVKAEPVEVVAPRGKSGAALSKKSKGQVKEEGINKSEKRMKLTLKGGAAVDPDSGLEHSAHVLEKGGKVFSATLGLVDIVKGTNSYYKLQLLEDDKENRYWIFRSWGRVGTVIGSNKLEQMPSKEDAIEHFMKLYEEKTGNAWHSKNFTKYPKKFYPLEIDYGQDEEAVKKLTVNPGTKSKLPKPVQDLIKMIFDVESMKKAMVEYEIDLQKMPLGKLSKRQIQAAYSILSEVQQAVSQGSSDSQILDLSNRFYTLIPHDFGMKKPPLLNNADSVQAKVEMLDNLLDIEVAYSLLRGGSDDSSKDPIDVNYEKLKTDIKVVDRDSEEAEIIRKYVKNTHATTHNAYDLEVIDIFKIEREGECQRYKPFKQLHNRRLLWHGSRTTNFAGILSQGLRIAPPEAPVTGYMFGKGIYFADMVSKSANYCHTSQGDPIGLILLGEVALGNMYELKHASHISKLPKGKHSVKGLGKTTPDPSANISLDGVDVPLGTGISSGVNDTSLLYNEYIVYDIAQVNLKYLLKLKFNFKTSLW

`CC(=O)Nc1cccc(-n2c(=O)n(C3CC3)c(=O)c3c(Nc4ccc(I)cc4F)n(C)c(=O)c(C)c32)c1` had a % of control in assay [1] of 111%.

The compound `COc1cc(Nc2nc(C)cc(-c3cnn4nc(OC)ccc34)n2)cc(C(F)(F)F)c1` came in with a % of control in assay [2] of 97%.

Compound `CN(C)CCOc1ccc(-c2nc(-c3ccncc3)c(-c3ccc4c(c3)CC/C4=N\O)[nH]2)cc1` displayed a % of control in [3] of 92%.

In turn, `Cc1cc(F)c(C(=O)Nc2cccc(-c3nncn3C(C)C)n2)cc1-n1cnc(C2CC2)c1` displayed a % of control in assay [4] of 97%.

In the case of `CC(=O)c1cc(-c2ccccc2OCC2CC2)c2ncccn12`, on Histamine H3 receptor, the % of control was determined as 105%.

In [5], `O=C(NOC[C@H](O)CO)c1ccc(F)c(F)c1Nc1ccc(I)cc1F` showed a % of control of 84%.

For the compound `Cn1cc(-n2cnc3c(NCc4nc5cc(Cl)c(Cl)cc5[nH]4)nc(N4CCOCC4)nc32)cn1`, in assay [6], the % of control was 2.4%. In [7], the IC50 is > 10 µM.

Compound `CNC(=O)Nc1ccc(-c2nc(N3CC4CCC(C3)O4)c3cnn(C4CCC5(CC4)OCCO5)c3n2)cc1` had a % of control in assay [8] of 85%.

In turn, `CC[C@@H]1[C@H](F)C(=O)N[C@@H]1COc1nccc2cc(C(N)=O)c(OC)cc12` [ZIMLOVISERTIB] had a % of inhibition in [9] of 2.51%.

As for `COc1cc(N(C)c2ccnc3ccc(C(F)(F)F)cc23)cc(OC)c1OC`, the % binding in assay [10] came to 81%.

In turn, `COCC(=O)NC/C=C/c1ccc2ncnc(Nc3ccc(Oc4ccc(C)nc4)c(C)c3)c2c1` [CP-724714] displayed a % of control in assay [11] of 92%.

As for `C=CC(=O)Nc1ccc(C(=O)Nc2[nH]nc3c2CN(C(=O)N[C@H](CN(C)C)c2ccccc2)C3(C)C)cc1`, the % of engagement in [12] was -20.7%.
